Source: PubChem BioAssay (NCI)
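The compound was tested at five concentrations on cells cultured in 96-well plates, with a 48-hour exposure period. GI50: concentration for 50% inhibition of growth. The concentration for full growth arrest is given as TGI.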

What was measured:
Experiment in all cases: NCI anticancer screen, dose series, 48 h
M14 melanoma = tested on: M14 melanoma
TK-10 renal = tested on: TK-10 renal
HCC-2998 colon = tested on: HCC-2998 colon
ACHN renal = tested on: ACHN renal
NCI-H226 lung = tested on: NCI-H226 lung
SK-MEL-5 melanoma = tested on: SK-MEL-5 melanoma
SF-539 CNS = tested on: SF-539 CNS
SK-OV-3 ovarian = tested on: SK-OV-3 ovarian
BT-549 breast = tested on: BT-549 breast
CCRF-CEM leukemia = tested on: CCRF-CEM leukemia

Row | SMILES | GI50 (M14 melanoma) | TGI (M14 melanoma) | GI50 (TK-10 renal) | TGI (TK-10 renal) | GI50 (HCC-2998 colon) | TGI (HCC-2998 colon) | GI50 (ACHN renal) | TGI (ACHN renal) | GI50 (NCI-H226 lung) | TGI (NCI-H226 lung) | GI50 (SK-MEL-5 melanoma) | TGI (SK-MEL-5 melanoma) | GI50 (SF-539 CNS) | TGI (SF-539 CNS) | GI50 (SK-OV-3 ovarian) | TGI (SK-OV-3 ovarian) | GI50 (BT-549 breast) | TGI (BT-549 breast) | TGI (CCRF-CEM leukemia) | GI50 (CCRF-CEM leukemia)
1 | O=C(COc1ccc(Cl)cc1Cl)NNc1ccc([N+](=O)[O-])cc1 | > 100 µM | > 100 µM | 30.1 µM | 74.2 µM | > 100 µM | > 100 µM | 51.5 µM | > 100 µM | 28.9 µM | > 100 µM | > 100 µM | > 100 µM | 99.8 µM | > 100 µM | 24 µM | 55 µM | 24 µM | 52 µM |  | 
2 | O=c1[nH]c(C2CCCCC2)nc2ccc(Cl)cc12 |  |  |  | > 100 µM |  | > 100 µM |  | > 100 µM |  | > 100 µM |  | > 100 µM |  | > 100 µM |  | > 100 µM |  |  |  | 
3 | Cc1c2cc[n+](C)cc2c(C)c2c1[nH]c1ccc(OC(C)(C)C)cc12 |  | > 100 µM |  | > 100 µM |  | > 100 µM |  | > 100 µM |  | > 100 µM |  | > 100 µM |  | > 100 µM |  | > 100 µM |  |  | > 100 µM | 
4 | Nc1nc(N)c2c(n1)NC(c1ccc(Cl)cc1)C1CCc3ccccc3C1=N2 (stereo not drawn) | 10.4 µM | 22.1 µM | 8.2 µM | 23.2 µM | 12.2 µM | 24.7 µM | 4.72 µM | 18.3 µM | 8.58 µM | 27.8 µM | 0.497 µM | 2.02 µM | 6.17 µM | 19.6 µM | 11 µM | 23 µM | 9.01 µM | 22.6 µM |  | 
5 | COc1ccc2c(c1)C(=O)CC(C(N)=O)C2 (stereo not drawn) |  | > 100 µM |  | > 100 µM |  | > 100 µM |  | > 100 µM |  | > 100 µM |  | > 100 µM |  |  |  | > 100 µM |  | > 100 µM | > 100 µM | 
6 | CCCCCCCN(CCCCCCC)C(=N)c1ccc(OC)c2ccccc12 | 1.53 µM | 2.95 µM | 1.46 µM | 2.88 µM |  |  | 1.32 µM | 2.81 µM |  |  | 1.58 µM | 3.01 µM |  |  | 1.66 µM | 3.14 µM |  |  | 3.63 µM | 1.76 µM
7 | COc1ccc(C2[C@@H](Cl)C(=O)N2c2ccc(OC)cc2)cc1 (stereo partly drawn) |  |  |  | > 100 µM |  | > 100 µM |  | > 100 µM |  | > 100 µM |  | > 100 µM |  | 49.8 µM |  | 53 µM |  |  | > 100 µM | 
8 | Nc1[nH]c(=S)[nH]c(=O)c1N=Nc1c(Br)cc(S(N)(=O)=O)cc1Br |  | > 100 µM |  | > 100 µM |  |  |  | > 100 µM |  | > 100 µM |  | > 100 µM |  | > 100 µM |  | > 100 µM |  | > 100 µM | > 100 µM | 
9 | CC1NCCC(CC(=O)O)C1CC(=O)O (stereo not drawn) |  | > 100 µM |  | > 100 µM |  | > 100 µM |  | > 100 µM |  | > 100 µM |  | > 100 µM |  |  |  | > 100 µM |  | > 100 µM | > 100 µM | 
10 | O=C(Nc1ccc(-c2cn3ccccc3n2)cc1)c1cc(Br)ccc1O |  | > 100 µM |  | > 100 µM |  |  |  | > 100 µM |  | > 100 µM |  | > 100 µM |  | > 100 µM |  | > 100 µM |  | > 100 µM | > 100 µM | 
11 | COc1ccc(CC2OC3(CCCCC3)CC3CCCCN32)cc1 (stereo not drawn) |  | > 100 µM |  | > 100 µM |  | > 100 µM |  | > 100 µM |  | > 100 µM |  | > 100 µM |  |  |  | > 100 µM |  | > 100 µM | > 100 µM | 
12 | Oc1ccc(Cl)cc1N=Nc1c(O)ccc2ccccc12 |  | > 100 µM |  | > 100 µM |  |  |  | > 100 µM |  | > 100 µM |  | > 100 µM |  |  |  | > 100 µM |  | > 100 µM | > 100 µM | 
13 | COC(=O)/C(=C1\OC(=O)C(c2ccc(Cl)cc2)=C1O)c1ccc(Cl)cc1 |  | 97.5 µM |  | 75.5 µM |  | 86.5 µM |  | 79.2 µM |  | 58.5 µM |  |  |  | 67.7 µM |  | 84.6 µM |  |  | > 100 µM | 
14 | CC1=NN(c2ccccc2)C(=O)C1N=Nc1ccc(Br)cc1C (stereo not drawn) |  | > 100 µM |  | > 100 µM |  | > 100 µM |  | > 100 µM |  | > 100 µM |  | > 100 µM |  | > 100 µM |  | > 100 µM |  |  | > 100 µM | 
15 | Cc1ccccc1C1SCc2nc3ccccc3n21 (stereo not drawn) |  |  |  | > 100 µM |  | > 100 µM |  | > 100 µM |  | > 100 µM |  | > 100 µM |  | > 100 µM |  | > 100 µM |  |  | > 100 µM | 
16 | OCC1OC(NO)C(O)C(O)C1O (stereo not drawn) |  | > 100 µM |  | > 100 µM |  | > 100 µM |  | > 100 µM |  | > 100 µM |  | > 100 µM |  | > 100 µM |  |  |  |  | > 100 µM | 
17 | CC1O[C@@H]2CCCCC(=O)[C@]2(C)[C@H]1C (stereo partly drawn) |  | > 100 µM |  | > 100 µM |  | > 100 µM |  | > 100 µM |  | > 100 µM |  | > 100 µM |  |  |  | > 100 µM |  |  | > 100 µM | 
18 | O=S1c2ccccc2N=C(c2cccs2)CC1c1ccccc1O (stereo not drawn) |  | > 100 µM |  | > 100 µM |  | > 100 µM |  | > 100 µM |  | > 100 µM |  | > 100 µM |  | > 100 µM |  | > 100 µM |  |  | > 100 µM | 
19 | CCn1c(C)nc([N+](=O)[O-])c1Sc1ncc[nH]1 |  | > 100 µM |  | > 100 µM |  | > 100 µM |  | > 100 µM |  | > 100 µM |  | > 100 µM |  | > 100 µM |  | > 100 µM |  |  | 58.7 µM | 
20 | O=S1(=O)CC#CC[C@@H](CO)[C@@H](CO)CC#CC1 |  | > 100 µM |  | > 100 µM |  | > 100 µM |  | > 100 µM |  |  |  | > 100 µM |  | > 100 µM |  | > 100 µM |  |  | 98.1 µM | 
21 | O=S(=O)(O)c1ccc([Se][Se]c2ccc(S(=O)(=O)O)cc2)cc1 |  | > 100 µM |  | > 100 µM |  | > 100 µM |  | > 100 µM |  | > 100 µM |  | > 100 µM |  | > 100 µM |  | > 100 µM |  |  | > 100 µM | 
22 | c1ccc2cc(Cn3c(-c4cccc5ccccc45)[n+](Cc4ccc5ccccc5c4)c4c5ccccc5c5ccccc5c43)ccc2c1 |  |  |  |  | 0.328 µM | 1.59 µM |  |  |  |  | 0.179 µM | 0.338 µM |  |  | 0.322 µM | 1.62 µM |  |  | 2.31 µM | 0.362 µM
23 | CN(N=O)N1C(=O)SCC(c2ccccc2)(c2ccccc2)C1=O |  | > 100 µM |  | > 100 µM |  | > 100 µM |  | > 100 µM |  | 52.7 µM |  | > 100 µM |  | 65.5 µM |  | 64.6 µM |  |  | > 100 µM | 
